From ChEMBL document CHEMBL1201862, “PubChem BioAssay data set” (2004)
The source made the active and inactive calls.

Key:
P388/ADR = test: cells; type: functional; conditions: Mus musculus
P388 = test: cells; type: functional; conditions: Mus musculus
SN12K1 = test: cells; type: functional; conditions: Homo sapiens
Paired box protein Pax-8 = Paired box protein Pax-8 (Homo sapiens, UniProt Q06710); test: PAX8 transcriptional activity inhibition in RMG-I – RMG-I cells, luciferase, cherry-pick, dose response (AID 687027); type: functional, cell-based;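 note: luciferase reporter driven by Pax8 target thyroperoxidase promoter measured by SteadyGlo luminescence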
Paired box protein Pax-8, sequence (Q06710 whole entry): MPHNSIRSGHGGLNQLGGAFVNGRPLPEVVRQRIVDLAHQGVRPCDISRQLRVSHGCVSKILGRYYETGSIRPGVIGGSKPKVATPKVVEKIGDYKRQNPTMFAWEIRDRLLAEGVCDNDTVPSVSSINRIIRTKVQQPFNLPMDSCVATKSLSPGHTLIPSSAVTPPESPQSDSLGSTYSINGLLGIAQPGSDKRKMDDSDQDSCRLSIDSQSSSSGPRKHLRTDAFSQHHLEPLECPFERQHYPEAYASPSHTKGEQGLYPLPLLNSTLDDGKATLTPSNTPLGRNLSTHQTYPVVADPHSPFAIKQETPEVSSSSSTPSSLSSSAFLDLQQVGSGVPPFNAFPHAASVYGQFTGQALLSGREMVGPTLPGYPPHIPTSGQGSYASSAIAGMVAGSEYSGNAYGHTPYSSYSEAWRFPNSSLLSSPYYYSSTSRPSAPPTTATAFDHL

[1] = microbe, parasite or virus in culture; type: functional; conditions: Mycobacterium tuberculosis
[2] = target: T1, Ubiquitin-conjugating enzyme E2 N (Homo sapiens, UniProt P61088); type: functional;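 note: Dose-response confirmation in a TR-FRET assay detecting UBC13-driven polyubiquitin chain formation, inhibition measured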
T1 sequence (P61088 whole entry): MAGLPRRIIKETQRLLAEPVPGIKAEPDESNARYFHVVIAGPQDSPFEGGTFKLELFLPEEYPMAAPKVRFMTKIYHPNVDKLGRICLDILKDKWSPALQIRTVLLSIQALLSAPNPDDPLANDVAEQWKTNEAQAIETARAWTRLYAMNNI

[3] = A549 cell cytotoxicity, dose response, cytotoxicity control, plate reader, cherry-pick, antagonist series (AID 743412); type: functional, cell-based
[4] = blockers of bursicon-stimulated LGR2 cAMP reporter – cell-based, HEK293, CRE-luciferase reporter, cherry pick, set 2, dose response (AID 743343); type: functional;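 note: transfected cells were stimulated with diluted bursicon conditioned medium after compound addition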
[5] = toxicity toward HepG2 liver cells – cell-based, plate reader, cherry-pick, antagonist series, cytotoxicity control, dose response (AID 743416); type: functional
[6] = blockade of melanocortin 4 receptor signaling – cell-based, plate reader, cherry pick, counter-screen for LGR2 antagonist project, dose response (AID 743444); type: functional;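 note: transfected HEK 293 cells stimulated with alpha-MSH peptide; potency of inhibitors of the alpha-MSH evoked signal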
[7] = viability loss in HEK293 cells – cell-based, plate reader, cherry-picked samples, cytotoxicity control, dose response (AID 743446); type: functional
[8] = target: T2, Sentrin-specific protease 6 (Homo sapiens, UniProt Q9GZR1); type: functional;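 note: Luminescence-based dose-response confirmatory assay of SENP6 inhibition, following up an ultra-high-throughput screen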
T2 sequence (Q9GZR1 whole entry): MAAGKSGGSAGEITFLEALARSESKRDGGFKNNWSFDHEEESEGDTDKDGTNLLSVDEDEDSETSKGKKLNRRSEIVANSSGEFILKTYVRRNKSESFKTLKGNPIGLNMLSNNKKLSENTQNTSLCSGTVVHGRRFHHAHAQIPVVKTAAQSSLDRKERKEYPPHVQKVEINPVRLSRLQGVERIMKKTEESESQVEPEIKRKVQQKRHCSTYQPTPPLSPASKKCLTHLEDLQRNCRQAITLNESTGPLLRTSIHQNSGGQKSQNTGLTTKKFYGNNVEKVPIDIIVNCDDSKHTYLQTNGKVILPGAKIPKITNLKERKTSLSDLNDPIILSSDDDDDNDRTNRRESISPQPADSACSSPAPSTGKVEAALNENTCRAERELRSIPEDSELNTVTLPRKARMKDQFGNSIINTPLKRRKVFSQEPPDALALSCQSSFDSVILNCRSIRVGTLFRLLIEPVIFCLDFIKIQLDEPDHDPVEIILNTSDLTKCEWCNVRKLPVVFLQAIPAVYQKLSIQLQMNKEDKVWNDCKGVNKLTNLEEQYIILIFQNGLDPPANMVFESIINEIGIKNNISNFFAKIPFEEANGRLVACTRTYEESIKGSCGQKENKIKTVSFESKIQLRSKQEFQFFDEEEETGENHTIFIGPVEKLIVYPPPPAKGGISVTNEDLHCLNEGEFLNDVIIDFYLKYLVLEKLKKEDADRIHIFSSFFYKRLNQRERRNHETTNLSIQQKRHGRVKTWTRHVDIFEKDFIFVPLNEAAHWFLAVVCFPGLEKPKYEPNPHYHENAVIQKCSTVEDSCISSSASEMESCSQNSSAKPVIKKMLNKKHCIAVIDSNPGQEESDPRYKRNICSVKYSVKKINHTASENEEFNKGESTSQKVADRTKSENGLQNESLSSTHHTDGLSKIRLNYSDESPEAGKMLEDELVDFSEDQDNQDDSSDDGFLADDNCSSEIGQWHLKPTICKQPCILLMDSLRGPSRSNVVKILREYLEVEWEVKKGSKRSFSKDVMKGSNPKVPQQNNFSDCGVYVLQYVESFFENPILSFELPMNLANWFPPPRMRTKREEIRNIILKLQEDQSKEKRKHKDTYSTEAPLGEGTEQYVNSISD

Caspase-3 = target: T3, Caspase-3 (Homo sapiens, UniProt P42574); type: functional;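 note: Dose-response selectivity test against caspase-3 for candidate inhibitors of sentrin-specific proteases (SENPs)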
T3 sequence (P42574 whole entry): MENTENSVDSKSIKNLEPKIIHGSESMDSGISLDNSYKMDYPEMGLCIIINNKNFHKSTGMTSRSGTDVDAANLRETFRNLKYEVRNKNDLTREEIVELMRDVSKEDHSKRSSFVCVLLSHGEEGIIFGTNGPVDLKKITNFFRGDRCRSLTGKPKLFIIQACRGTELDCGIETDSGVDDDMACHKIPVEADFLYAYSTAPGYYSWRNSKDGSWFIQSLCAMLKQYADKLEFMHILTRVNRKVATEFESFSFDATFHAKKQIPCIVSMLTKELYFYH

[9] = target: T4, Sentrin-specific protease 8 (Homo sapiens, UniProt Q96LD8); type: functional;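 note: luminescence read-out of SENP8 inhibition, dose-response confirmation following an ultra-high-throughput screen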
T4 sequence (Q96LD8 whole entry): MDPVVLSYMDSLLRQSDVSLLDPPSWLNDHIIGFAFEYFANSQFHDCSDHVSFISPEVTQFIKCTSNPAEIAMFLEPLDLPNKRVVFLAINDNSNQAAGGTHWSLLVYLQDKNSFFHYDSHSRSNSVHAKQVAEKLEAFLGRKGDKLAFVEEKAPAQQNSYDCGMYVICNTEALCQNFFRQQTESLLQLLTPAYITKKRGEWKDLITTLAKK

[10] = target: T5, Sentrin-specific protease 7 (Homo sapiens, UniProt Q9BQF6); type: functional;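 note: Luminescence-based dose-response confirmation of ultra-high-throughput screening hits, measuring inhibition of SENP7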
T5 sequence (Q9BQF6 whole entry): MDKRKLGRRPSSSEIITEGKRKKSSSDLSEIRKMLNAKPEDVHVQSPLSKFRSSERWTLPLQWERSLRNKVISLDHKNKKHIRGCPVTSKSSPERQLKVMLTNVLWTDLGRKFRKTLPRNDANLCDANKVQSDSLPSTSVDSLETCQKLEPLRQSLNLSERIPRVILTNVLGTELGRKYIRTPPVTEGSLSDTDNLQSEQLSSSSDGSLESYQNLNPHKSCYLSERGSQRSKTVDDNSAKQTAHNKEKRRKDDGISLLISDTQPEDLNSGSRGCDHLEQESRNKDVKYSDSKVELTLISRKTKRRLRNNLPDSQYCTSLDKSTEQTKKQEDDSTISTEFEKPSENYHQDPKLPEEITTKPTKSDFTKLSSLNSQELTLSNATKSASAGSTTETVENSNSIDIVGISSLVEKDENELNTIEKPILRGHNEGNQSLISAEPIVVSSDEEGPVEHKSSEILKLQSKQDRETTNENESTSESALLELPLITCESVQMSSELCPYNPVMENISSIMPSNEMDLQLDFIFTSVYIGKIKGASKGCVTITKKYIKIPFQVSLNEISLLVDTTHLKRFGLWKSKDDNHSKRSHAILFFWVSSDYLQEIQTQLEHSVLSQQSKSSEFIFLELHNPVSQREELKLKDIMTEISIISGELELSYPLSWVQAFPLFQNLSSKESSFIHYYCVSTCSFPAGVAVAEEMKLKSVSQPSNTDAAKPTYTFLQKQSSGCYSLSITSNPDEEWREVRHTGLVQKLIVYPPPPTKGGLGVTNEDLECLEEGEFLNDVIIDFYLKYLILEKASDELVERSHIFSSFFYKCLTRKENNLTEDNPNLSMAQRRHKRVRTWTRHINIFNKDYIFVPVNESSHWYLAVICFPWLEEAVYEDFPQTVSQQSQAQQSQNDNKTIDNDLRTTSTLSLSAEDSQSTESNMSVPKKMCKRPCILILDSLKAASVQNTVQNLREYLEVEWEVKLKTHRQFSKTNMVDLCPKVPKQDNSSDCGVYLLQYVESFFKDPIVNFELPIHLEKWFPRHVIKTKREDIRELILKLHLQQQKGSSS

[11] = target: T6, Oxysterols receptor LXR-beta (Homo sapiens, UniProt P55055); test: LXR agonists, Gal4 luciferase reporter, dose response, counter-screen for ssDAF-12 agonist project, cell-based, luminescence, HEK293, S. stercoralis campaign (AID 720737); type: functional; conditions: read-out: IC50 (the source's name)
T6 sequence (P55055 whole entry): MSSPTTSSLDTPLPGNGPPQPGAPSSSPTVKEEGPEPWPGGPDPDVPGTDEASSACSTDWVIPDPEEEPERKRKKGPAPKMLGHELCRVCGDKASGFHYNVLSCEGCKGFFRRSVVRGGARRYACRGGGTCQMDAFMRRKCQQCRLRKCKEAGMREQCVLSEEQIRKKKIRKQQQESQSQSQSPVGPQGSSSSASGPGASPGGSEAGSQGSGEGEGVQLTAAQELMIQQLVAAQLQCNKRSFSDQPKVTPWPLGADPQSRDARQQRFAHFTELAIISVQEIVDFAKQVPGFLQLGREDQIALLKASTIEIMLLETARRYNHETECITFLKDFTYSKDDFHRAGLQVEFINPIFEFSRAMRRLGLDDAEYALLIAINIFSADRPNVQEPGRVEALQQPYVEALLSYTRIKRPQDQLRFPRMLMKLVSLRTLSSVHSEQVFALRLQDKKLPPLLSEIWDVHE

[12] = Luminescence-based cell-based high throughput dose response assay to identify activators of the DAF-12 from the parasite S. stercoralis (ssDAF-12).; type: functional
[13] = NIH3T3 cell viability loss – ATP luminescence, mouse fibroblasts, counter-screen, dose response (AID 2010); type: functional, cell-based;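 note: cells exposed to compound for about 90 hours before reading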
[14] = Trypanosoma cruzi growth suppression in host cells – NIH3T3 host cells, beta-gal luminescence, confirmation (AID 2044); type: functional, cell-based;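 note: intracellular parasites grown in NIH/3T3 mouse fibroblasts as host cells; luminescent beta-galactosidase reporter signal from transgenic T. cruzi replicating inside host cells; inhibitors lower the luminescence signal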
[15] = Luminescence Cell-Based Dose Response HTS to Identify Activators of Luciferase Translation or Activity in H4 […] Cells. [Related pubchem assays: 1829 (Project Summary), 1814 (Primary HTS)]; type: functional
H4 = test: Luminescence Cell-Based Dose Response HTS to Identify Activators of 5'UTR Stem-Loop Driven Prion Protein mRNA Translation in H4 Neuroglioblastoma Cells. [Related pubchem assays: 1829 (Project Summary), 1814 (Primary HTS)]; type: functional; conditions: Homo sapiens

## COc1ccc(CC2C(=O)NC(C)C(=O)N(C)C3C(=O)N(C)C(Cc4ccc(O)c(c4)Oc4ccc(cc4)C3O)C(=O)NC(C)C(=O)NC(C)C(=O)N2C)cc1 (stereo unspecified)
P388/ADR
  GI50: 2.26 µM (inactive)
P388
  GI50: 0.00373 µM (active)
SN12K1
  GI50: 0.00262 µM (active)
Paired box protein Pax-8
  AC50: < 0.26 µM (active)

## C=C1C(=O)O[C@H]2C1[C@H](OC(=O)/C(C)=C\COC(C)=O)C[C@]1(CO1)[C@@H]1[C@H](O)[C@H]3O[C@@]3(C)[C@@H]12 (stereo partly specified)
P388/ADR
  GI50: 8.13 µM (inactive)
P388
  GI50: 3.4 µM (inactive)
SN12K1
  GI50: 24.8 µM (inactive)

## Ic1ccccc1CN[C@@H]1C2CCN(CC2)[C@@H]1C(c1ccccc1)c1ccccc1
[1]
  CC50: 12.6 µM (active)
[2]
  IC50: > 20 µM (inactive)
[3]
  AC50: 7.99 µM (active)
[4]
  AC50: 18.1 µM (active)
[5]
  AC50: 8.05 µM (active)
[6]
  AC50: 21.6 µM (active)
[7]
  AC50: 13.9 µM (active)

## COc1cccc(-c2nnc(-c3ccccc3[N+](=O)[O-])o2)c1
[8]
  IC50: > 100 µM (inactive)
Caspase-3
  IC50: 19.1 µM (active)
[9]
  IC50: > 100 µM (inactive)
[10]
  IC50: 10.4 µM (active)

## COC(=O)c1ccccc1NC(=O)c1ccnn1C
[11]
  EC50: > 67.5 µM (inactive)
[12]
  IC50: > 67.5 µM (inactive)

## Cc1ccc(/C=N/OC(=O)c2nn(C)cc2Cl)cc1
[8]
  IC50: 39 µM (active)
Caspase-3
  IC50: 24 µM (active)
[9]
  IC50: 54.7 µM (active)
[10]
  IC50: 13 µM (active)

## C=C1C(=O)OC2/C=C(\C)CC(O)/C=C(/CO)CC(OC(=O)/C(C)=C/C)C12 (stereo unspecified)
P388/ADR
  GI50: 16.7 µM (inactive)
P388
  GI50: 11.1 µM (inactive)
SN12K1
  GI50: 24.8 µM (inactive)

## CNC(=O)OCc1nc([S+](C)[O-])n(C)c1COC(=O)NC (stereo unspecified)
P388/ADR
  GI50: > 100 µM (inactive)
P388
  GI50: > 100 µM (inactive)
SN12K1
  GI50: > 100 µM (inactive)

## CN1c2ccsc2/C(=N/Nc2ccc(F)cc2)CS1(=O)=O
[13]
  EC50: > 60 µM (not active)
[14]
  EC50: 3.22 µM (active)
[15]
  EC50: 54.8 µM (active)
[11]
  EC50: > 67.5 µM (inactive)
[12]
  IC50: > 67.5 µM (inactive)
H4
  EC50: 49.1 µM (active)
